According to patent US20040091578A1 (priority 2001, published 2004):

Tests used:
[1] = biological target: T1, NADP-Malate Dehydrogenase (Zea mays, UniProt P15719); assay: Activation of chloroplast NADP-malate dehydrogenase by thioredoxin-reduced proteins; type: biochemical, corn; details: 20 μg protein with DTT-reduced thioredoxin h
T1 construct: were purified from leaves of corn; from tissue; host or cells: corn leaves
Method: (§1) The NADP-MDH, FBPase, NTR and Thioredoxin h assay methods were according to Florencio, F. J. et al. (1988), Arch. Biochem. Biophys. 266:496-507 with slight modifications as indicated. For enzyme activation assays, the preincubation time was 20 min unless specified otherwise.
In one study 20 mM β-mercaptoethanol (β-MET) was used instead of DTT. Following preincubation, NADP-MDH was assayed spectrophoto-metrically.
(§2) The Wada et al., 1981 protocol was used for assaying NADP-malate dehydrogenase and fructose 1,6 bisphosphatase in the presence of thioredoxin and 2S protein. Assays were conducted under conditions in which the amount of added thioredoxin was sufficient to reduce the castor 2S protein but insufficient to activate the target enzyme appreciably. All assays were at 25° C. Unless otherwise indicated, the thioredoxin and NTR used were from E. coli. The 2S protein was monitored during purification by mBBr/SDS-polyacrylamide gel electrophoresis following its reduction by dithiothreitol and E. coli thioredoxin (Crawford et al., 1989; Kobrehel et al., 1991).

Fructose Bisphosphatase = biological target: T2, Fructose Bisphosphatase (Spinacia oleracea, UniProt P22418); assay: Activation of chloroplast fructose bisphosphatase by thioredoxin-reduced proteins; type: biochemical, spinach; details: 20 μg protein, 1 μg E. coli thioredoxin, DTT; corrected for thioredoxin alone
T2 construct: purified from leaves of corn (Jacquot, J.-P. et al. (1981), Plant Physiol. 68:300-304) and spinach; from tissue; host or cells: spinach leaves
T2 sequence (P22418 58-415): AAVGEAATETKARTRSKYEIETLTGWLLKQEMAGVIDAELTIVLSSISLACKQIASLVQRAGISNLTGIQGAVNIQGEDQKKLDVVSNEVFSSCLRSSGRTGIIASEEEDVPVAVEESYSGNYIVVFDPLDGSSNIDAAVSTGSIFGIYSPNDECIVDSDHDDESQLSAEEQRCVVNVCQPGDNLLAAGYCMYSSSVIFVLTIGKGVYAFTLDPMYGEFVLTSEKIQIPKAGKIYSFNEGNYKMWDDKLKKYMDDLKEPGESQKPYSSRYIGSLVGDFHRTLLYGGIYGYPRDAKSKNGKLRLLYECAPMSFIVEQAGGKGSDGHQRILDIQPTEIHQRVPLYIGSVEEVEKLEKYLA
Method: as §1, §2

glutaredoxin = biological target: T3, glutaredoxin (Escherichia coli, UniProt P68688); assay: Reduction by glutaredoxin, mBBr/SDS-PAGE with densitometric scanning; type: biochemical
T3 sequence (P68688 1-85): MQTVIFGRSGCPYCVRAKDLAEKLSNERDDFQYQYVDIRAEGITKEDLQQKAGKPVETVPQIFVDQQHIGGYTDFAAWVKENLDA
Method: Direct reduction of the proteins under study was determined by a modification of the method of Crawford et al. (Crawford, N. A. et al. (1989), Arch. Biochem. Biophys. 271:223-239). The reaction was carried out in 100 mM potassium phosphate buffer, pH 7.1, containing 10 mM EDTA and 16% glycerol in a final volume of 0.1 ml. As indicated, 0.7 μg (0.1 μM) NTR and 1 μg (0.8 μM) thioredoxin (both routinely from E. coli were added to 70 μl of the buffer solution containing 1 mM NADPH and 10 μg (2 to 17 μM) of target protein. When thioredoxin was reduced by dithiothreitol (DTT, 0.5 mM), NADPH and NTR were omitted. Assays with reduced glutathione were performed similarly, but at a final concentration of 1 mM. After incubation for 20 min, 100 nmoles of mBBr were added and the reaction was continued for another 15 min. To stop the reaction and derivatize excess mBBr, 10 μl of 10% SDS and 10 μl of 100 mM β-mercaptoethanol were added and the samples were then applied to the gels. […]
This ability was tested, using glutaredoxin from E. coli and the seed proteins currently under study. Reduction activity was monitored by the mBBr/SDS polyacrylamide gel electrophoresis procedure coupled with densitometric scanning.

T1 sequence (P15719 41-432): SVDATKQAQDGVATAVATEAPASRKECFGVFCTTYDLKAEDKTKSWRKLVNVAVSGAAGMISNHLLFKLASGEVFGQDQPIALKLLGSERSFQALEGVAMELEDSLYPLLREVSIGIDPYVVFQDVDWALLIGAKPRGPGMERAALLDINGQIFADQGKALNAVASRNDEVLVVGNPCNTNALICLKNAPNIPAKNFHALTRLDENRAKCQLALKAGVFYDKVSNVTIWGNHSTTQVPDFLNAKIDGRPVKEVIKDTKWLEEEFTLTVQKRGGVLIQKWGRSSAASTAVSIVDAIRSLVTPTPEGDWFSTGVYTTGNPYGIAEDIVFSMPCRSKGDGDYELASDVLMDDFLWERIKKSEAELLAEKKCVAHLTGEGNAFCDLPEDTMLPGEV

Aprotinin [Bovine lung (Aprotinin)]
ACTIVITY, NADP-MDH [1]: Trace
ACTIVITY, FBPase (Fructose Bisphosphatase): 2 nkat/mg
percentage reduction by glutaredoxin relative to E. coli thioredoxin (glutaredoxin): not affected
